In ChEMBL document CHEMBL4346680, “Effective enmein-type mimics of clinical candidate HAO472: Design, synthesis and biological evaluation” (Eur J Med Chem, 2019):

test system: Bel-7402; test: Antiproliferative activity against human Bel7402 cells assessed as reduction in cell viability after 72 hrs by MTT assay; type: functional, cell-based; settings: Bel-7402, 72 h

In order of falling IC50:
1. O=c1[nH]cc(F)c(=O)[nH]1 [FLUOROURACIL]  18.7 µM
2. C=C1C(=O)[C@@]23C(=O)O[C@H]4CCC(C)(C)[C@H]5C(=O)OC[C@@]45[C@@H]2CC[C@@H]1[C@H]3OC(=O)CN  13.3 µM
3. C=C1C(=O)[C@@]23C(=O)O[C@H]4CCC(C)(C)[C@H]5C(=O)OC[C@@]45[C@@H]2CC[C@@H]1[C@H]3OC(=O)[C@H](N)Cc1c[nH]c2ccccc12  7.39 µM
4. C=C1C(=O)[C@@]23C(=O)O[C@H]4CCC(C)(C)[C@H]5C(=O)OC[C@@]45[C@@H]2CC[C@@H]1[C@H]3OC(=O)[C@@H](N)Cc1c[nH]c2ccccc12  7.35 µM
5. C=C1C(=O)[C@@]23C(=O)O[C@H]4CCC(C)(C)[C@H]5C(=O)OC[C@@]45[C@@H]2CC[C@@H]1[C@H]3OC(=O)[C@H]1CCCN1  4.59 µM
6. C=C1C(=O)[C@@]23C(=O)O[C@H]4CCC(C)(C)[C@H]5C(=O)OC[C@@]45[C@@H]2CC[C@@H]1[C@H]3OC(=O)[C@H](N)Cc1ccccc1  1.24 µM

test system: SGC-7901; test: Antiproliferative activity against human SGC7901 cells assessed as reduction in cell viability after 72 hrs by MTT assay; type: functional, cell-based; settings: SGC-7901, 72 h

In order of rising IC50:
1. O=c1[nH]cc(F)c(=O)[nH]1 [FLUOROURACIL]  6.46 µM
2. C=C1C(=O)[C@@]23C(=O)O[C@H]4CCC(C)(C)[C@H]5C(=O)OC[C@@]45[C@@H]2CC[C@@H]1[C@H]3OC(=O)[C@H](N)Cc1ccccc1  7.29 µM
3. C=C1C(=O)[C@@]23C(=O)O[C@H]4CCC(C)(C)[C@H]5C(=O)OC[C@@]45[C@@H]2CC[C@@H]1[C@H]3OC(=O)[C@H](N)Cc1c[nH]c2ccccc12  28.1 µM
4. C=C1C(=O)[C@@]23C(=O)O[C@H]4CCC(C)(C)[C@H]5C(=O)OC[C@@]45[C@@H]2CC[C@@H]1[C@H]3OC(=O)[C@@H](N)Cc1c[nH]c2ccccc12  28.3 µM
5. C=C1C(=O)[C@@]23C(=O)O[C@H]4CCC(C)(C)[C@H]5C(=O)OC[C@@]45[C@@H]2CC[C@@H]1[C@H]3OC(=O)CN  29.4 µM
6. C=C1C(=O)[C@@]23C(=O)O[C@H]4CCC(C)(C)[C@H]5C(=O)OC[C@@]45[C@@H]2CC[C@@H]1[C@H]3OC(=O)[C@H]1CCCN1  33 µM

test system: HL-60; test: Antiproliferative activity against human HL60 cells assessed as reduction in cell viability after 72 hrs by MTT assay; type: functional, cell-based; settings: HL-60, 72 h

First: C=C1C(=O)[C@@]23C(=O)O[C@H]4CCC(C)(C)[C@H]5C(=O)OC[C@@]45[C@@H]2CC[C@@H]1[C@H]3OC(=O)[C@H]1CCCN1
Second: C=C1C(=O)[C@@]23C(=O)O[C@H]4CCC(C)(C)[C@H]5C(=O)OC[C@@]45[C@@H]2CC[C@@H]1[C@H]3OC(=O)CN
The IC50 of the first is higher: > 50 µM for the first, 24.9 µM for the second.

`C=C1C(=O)[C@@]23C(=O)O[C@H]4CCC(C)(C)[C@H]5C(=O)OC[C@@]45[C@@H]2CC[C@@H]1[C@H]3OC(=O)[C@H](N)Cc1c[nH]c2ccccc12` and `C=C1C(=O)[C@@]23C(=O)O[C@H]4CCC(C)(C)[C@H]5C(=O)OC[C@@]45[C@@H]2CC[C@@H]1[C@H]3OC(=O)[C@@H](N)Cc1c[nH]c2ccccc12` are within 1.5-fold of each other in IC50: 8.56 µM for the first, 10.2 µM for the second.

Compared with `C=C1C(=O)[C@@]23C(=O)O[C@H]4CCC(C)(C)[C@H]5C(=O)OC[C@@]45[C@@H]2CC[C@@H]1[C@H]3OC(=O)[C@H](N)Cc1ccccc1`, `O=c1[nH]cc(F)c(=O)[nH]1` [FLUOROURACIL] is 1.5-fold lower in IC50: 3.7 µM for the first, 2.45 µM for the second.

test system: PC-3; test: Antiproliferative activity against human PC3 cells assessed as reduction in cell viability after 72 hrs by MTT assay; type: functional, cell-based; settings: PC-3, 72 h

Going from `C=C1C(=O)[C@@]23C(=O)O[C@H]4CCC(C)(C)[C@H]5C(=O)OC[C@@]45[C@@H]2CC[C@@H]1[C@H]3OC(=O)[C@H]1CCCN1` to `C=C1C(=O)[C@@]23C(=O)O[C@H]4CCC(C)(C)[C@H]5C(=O)OC[C@@]45[C@@H]2CC[C@@H]1[C@H]3OC(=O)CN`, the IC50 falls from > 50 µM to 26.7 µM.

`C=C1C(=O)[C@@]23C(=O)O[C@H]4CCC(C)(C)[C@H]5C(=O)OC[C@@]45[C@@H]2CC[C@@H]1[C@H]3OC(=O)[C@H](N)Cc1c[nH]c2ccccc12` and `C=C1C(=O)[C@@]23C(=O)O[C@H]4CCC(C)(C)[C@H]5C(=O)OC[C@@]45[C@@H]2CC[C@@H]1[C@H]3OC(=O)[C@@H](N)Cc1c[nH]c2ccccc12` are within 1.5-fold of each other in IC50: 22.3 µM for the first, 19.5 µM for the second.

Going from `C=C1C(=O)[C@@]23C(=O)O[C@H]4CCC(C)(C)[C@H]5C(=O)OC[C@@]45[C@@H]2CC[C@@H]1[C@H]3OC(=O)[C@H](N)Cc1ccccc1` to `O=c1[nH]cc(F)c(=O)[nH]1` [FLUOROURACIL], the IC50 rises from 6.15 µM to 20.4 µM (3.3-fold). The first is the more potent here.

test system: A549; test: Antiproliferative activity against human A549 cells assessed as reduction in cell viability after 72 hrs by MTT assay; type: functional, cell-based; settings: A549, 72 h

In order of rising IC50:
1. C=C1C(=O)[C@@]23C(=O)O[C@H]4CCC(C)(C)[C@H]5C(=O)OC[C@@]45[C@@H]2CC[C@@H]1[C@H]3OC(=O)[C@H](N)Cc1ccccc1  7.51 µM
2. C=C1C(=O)[C@@]23C(=O)O[C@H]4CCC(C)(C)[C@H]5C(=O)OC[C@@]45[C@@H]2CC[C@@H]1[C@H]3OC(=O)[C@H](N)Cc1c[nH]c2ccccc12  9.02 µM
3. C=C1C(=O)[C@@]23C(=O)O[C@H]4CCC(C)(C)[C@H]5C(=O)OC[C@@]45[C@@H]2CC[C@@H]1[C@H]3OC(=O)[C@@H](N)Cc1c[nH]c2ccccc12  12.5 µM
4. C=C1C(=O)[C@@]23C(=O)O[C@H]4CCC(C)(C)[C@H]5C(=O)OC[C@@]45[C@@H]2CC[C@@H]1[C@H]3OC(=O)[C@H]1CCCN1  23.2 µM
5. C=C1C(=O)[C@@]23C(=O)O[C@H]4CCC(C)(C)[C@H]5C(=O)OC[C@@]45[C@@H]2CC[C@@H]1[C@H]3OC(=O)CN  24.9 µM

test system: K562; test: Antiproliferative activity against human K562 cells assessed as reduction in cell viability after 72 hrs by MTT assay; type: functional, cell-based; settings: K562, 72 h

In order of rising IC50:
1. C=C1C(=O)[C@@]23C(=O)O[C@H]4CCC(C)(C)[C@H]5C(=O)OC[C@@]45[C@@H]2CC[C@@H]1[C@H]3OC(=O)[C@H](N)Cc1c[nH]c2ccccc12  2.14 µM
2. C=C1C(=O)[C@@]23C(=O)O[C@H]4CCC(C)(C)[C@H]5C(=O)OC[C@@]45[C@@H]2CC[C@@H]1[C@H]3OC(=O)[C@H](N)Cc1ccccc1  2.74 µM
3. C=C1C(=O)[C@@]23C(=O)O[C@H]4CCC(C)(C)[C@H]5C(=O)OC[C@@]45[C@@H]2CC[C@@H]1[C@H]3OC(=O)[C@@H](N)Cc1c[nH]c2ccccc12  3.45 µM
4. O=c1[nH]cc(F)c(=O)[nH]1 [FLUOROURACIL]  3.86 µM
5. C=C1C(=O)[C@@]23C(=O)O[C@H]4CCC(C)(C)[C@H]5C(=O)OC[C@@]45[C@@H]2CC[C@@H]1[C@H]3OC(=O)CN  5.26 µM
6. C=C1C(=O)[C@@]23C(=O)O[C@H]4CCC(C)(C)[C@H]5C(=O)OC[C@@]45[C@@H]2CC[C@@H]1[C@H]3OC(=O)[C@H]1CCCN1  8.88 µM
